According to paper PMC12503906, “Novel Pyrazolo [1,5‐a]−1,3,5‐Triazine Derivatives as CDK7 Inhibitors: Synthesis and Biological Insights in Pancreatic Ductal Adenocarcinoma Models” (Chemmedchem, 2025):

What was measured:
[1] = test system: Bax/Bcl‐2; experiment: Bax/Bcl‐2 ratio by RT‐PCR, SUIT 2.28 cells; type: cell-based
Protocol: (§1) In order to understand modulation of downstream genes of CDK7, gene expression analysis by qPCR was performed in all cell lines. Cells (5 × 10^5/well) were seeded in 6‐well plates and treated with the compounds 1b and 1g at 1× and 4 × IC50 concentrations. Cell lysates were collected 24 h post‐treatment using 300 µL of TRIzol Reagent (Ambion, 15,596,018) per well. Total RNA was extracted by mixing 60 µL of chloroform to the samples, incubating for 3 min and centrifuging at 12,000 rcf for 15 min at 4 °C. The upper aqueous phase containing RNA was transferred to a new Eppendorf and mixed with 120 µL of cold isopropanol in order to allow the RNA to precipitate. Samples were incubated at RT for 10 min and were then centrifuged at 12,000 rcf for 10 min at 4 °C. The isopropanol was carefully removed, and the pellet was washed twice with 70% ETOH. Pellets were left to air dry and consequently resuspended in RNAse‐free water. Samples were left agitation on a thermomixer at 55 °C for 10 min at 600 rpm and were then quantified through NanoDrop technology (Thermo Scientific, NanoDrop One/One^c). RNA samples were stored at −80 °C.
(§2) In order to perform cDNA synthesis, the First Strand cDNA synthesis kit (Thermo Scientific, K1612) was used. The previously isolated RNA was mixed with 1 µL of oligo dT18 primer into a pcr tube. Nuclease free water was added to reach a final volume of 11 µL. Samples were centrifuged at 1200 rcf for 5 min and were then placed on a thermomixer at 65 °C for a few minutes. A master mix was prepared, including 4 µL of 5× reaction buffer, 1 µL of ribolock RNAse inhibitor, 2 µL of dntp mix (10 mM), and 2 µL of M‐mulv reverse transcriptase for each sample. In total 9 µL of master mix were added to each vial. Samples were centrifuged again and were finally synthesized, following a cycle of 60 min at 37 °C and 5 min at 70 °C. cDNA was now finally synthesized and could be stored at −20 °C. RT‐PCRs reactions were performed using SYBR Green (Bio‐Rad, 1,725,271) (5 µL per sample), primer mix (0.3 µM) (2 µL per sample), and cDNA (10 ng µL^− ^1) (3 µL per sample). […] RT‐PCR assays were carried out in a GeneAmp 5700 Sequence Detection System programmed to hold at 50 °C for 30 min, to hold at 95 °C for 10 min, and to complete 45 cycles of 95 °C for […] and 50 °C for 1 min. The genes that were investigated are shown in Table 5 , with their respective forward and reverse primer sequences.

[2] = test system: Bax/Bcl‐2; experiment: Bax/Bcl‐2 ratio by RT‐PCR, PATU‐T cells; type: cell-based
Protocol: as §1, §2

[3] = test system: PANC‐1; experiment: Annexin V apoptosis assay, PANC‐1; type: cell-based; conditions: 1 × IC50
Protocol: (§3) In order to investigate the apoptotic properties of the compounds 1b and 1g, the Annexin V apoptosis assay was performed. Annexins are calcium‐dependent phospholipid binding proteins, which are able to bind to phosphatidylserine (PS). The externalization of PS residues on the outer membrane of apoptotic cells can be detected by Annexin V.
(§4) For this assay, cells were seeded in a 96‐well plate at a concentration of 13.5 × 10^3 and 4.5 × 10^3 /well respectively for the 24 and 72 h experiments. The next day cells were treated with compounds 1b and 1g at 1 × IC50 and 4 × IC50 concentrations. The apoptosis assay was performed 24 and 72 h post‐treatment following the BD Pharmingen FITC Annexin V Apoptosis Detection Kit I (BD Biosciences, 556,547). The supernatant was aspirated, and cells were washed with phosphate‐buffered saline (PBS). Cells were consequently treated with binding buffer BBA + Annexin V (1:100) and were incubated in the dark at RT for 10 min. The supernatant was removed, and the cells were washed with BBA (1:10). Cells were then incubated with BBA + PI (1:100) and were immediately read with the spectrophotometer at ex. 485/ em. 535. Two different programs were used to read the Annexin V and the PI absorbance. Lastly, 100 µL of PBS were added to each well before being fixed with TCA. This was followed by the SRB assay to standardize fluorescence data according to cell count. Data were exported into GraphPad Prism 10 for statistical analysis.

[4] = test system: PDAC3; experiment: Annexin V apoptosis assay, PDAC3; type: cell-based; conditions: 1 × IC50
Protocol: as §3, §4

[5] = target: phosphorylated CDK7 (p‐CDK7) (Homo sapiens, UniProt P50613); experiment: Phospho‐CDK7 (Thr170) cell‐based ELISA, PDAC3; parameters: endogenous in cells; host or cells: PDAC3 primary cells; conditions: PDAC3, 4 × IC50, ELISA
Protocol: To detect CDK7 and phospho‐CDK7 levels at Thr170 residue after treatment, an enzyme‐linked immunosorbent assay (Biomatik, Phospho‐CDK7 (Thr170) Colorimetric Cell‐Based ELISA Kit, Cat# EKA51274) was performed according to the manufacturer's protocols. […] The absorbance was read at 450 nm using a microplate reader.

phosphorylated CDK7 (p‐CDK7), sequence (P50613 2-346 limits assumed): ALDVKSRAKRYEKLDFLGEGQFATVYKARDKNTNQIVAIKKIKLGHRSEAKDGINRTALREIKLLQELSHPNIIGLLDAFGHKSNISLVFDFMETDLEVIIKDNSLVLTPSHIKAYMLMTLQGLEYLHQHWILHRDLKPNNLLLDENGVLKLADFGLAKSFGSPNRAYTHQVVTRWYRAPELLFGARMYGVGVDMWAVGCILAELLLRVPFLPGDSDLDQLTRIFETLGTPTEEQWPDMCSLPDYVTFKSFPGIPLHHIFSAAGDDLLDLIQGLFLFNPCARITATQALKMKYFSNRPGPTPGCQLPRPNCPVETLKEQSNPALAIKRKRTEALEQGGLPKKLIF
phosphorylated CDK7 (p‐CDK7), sequence (P51946 whole entry partner): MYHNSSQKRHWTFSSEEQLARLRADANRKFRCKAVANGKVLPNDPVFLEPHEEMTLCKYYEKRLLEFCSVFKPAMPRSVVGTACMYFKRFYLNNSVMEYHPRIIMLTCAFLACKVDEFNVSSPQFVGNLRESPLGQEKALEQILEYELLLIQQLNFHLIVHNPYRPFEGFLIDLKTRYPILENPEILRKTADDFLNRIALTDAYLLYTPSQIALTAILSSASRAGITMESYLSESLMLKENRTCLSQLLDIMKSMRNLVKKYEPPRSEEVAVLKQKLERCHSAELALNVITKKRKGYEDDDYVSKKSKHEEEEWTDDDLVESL
phosphorylated CDK7 (p‐CDK7), sequence (P51948 whole entry partner): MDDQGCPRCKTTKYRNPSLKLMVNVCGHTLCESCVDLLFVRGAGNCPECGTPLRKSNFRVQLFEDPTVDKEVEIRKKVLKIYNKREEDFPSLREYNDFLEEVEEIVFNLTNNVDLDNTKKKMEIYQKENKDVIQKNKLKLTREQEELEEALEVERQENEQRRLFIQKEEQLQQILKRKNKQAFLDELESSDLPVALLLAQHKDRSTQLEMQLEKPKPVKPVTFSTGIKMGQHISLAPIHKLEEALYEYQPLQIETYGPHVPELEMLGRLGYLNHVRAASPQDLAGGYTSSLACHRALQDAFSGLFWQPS

`Nc1ncnc2cc(-c3c[nH]c4ccc(Br)cc34)nn12` [Compound 1b, 7‐(5‐Bromo‐1H‐indol‐3‐yl)pyrazolo[1,5‐a][1,3,5]triazin‐4‐amine] was tested, and the “Bax/Bcl‐2 ratio SUIT 2.28” value ([1]; 1 × IC50, 24 h after treatment) was 1.07, the “Bax/Bcl‐2 ratio SUIT 2.28” value ([1]; 4 × IC50, 24 h after treatment) was 1.45 and the “Bax/Bcl‐2 ratio PATU‐T” value ([2]; 1 × IC50, 24 h after treatment) was 4.43. The “Bax/Bcl‐2 ratio PATU‐T” value ([2]; 4 × IC50, 24 h after treatment) was 4.03, the apoptotic index ([3]; PANC‐1, 24 h) was “did not show any significant increase in apoptotic index” and the apoptotic index ([3]; PANC‐1, 72 h) was “significant increase in apoptotic index”. For the same compound, the apoptotic index ([4]; PDAC3, 24 h) was “significant increase in apoptotic index”, the apoptotic index ([4]; PDAC3, 72 h) was “continued to show a significant rise” and the “p‐CDK7 expression vs untreated” value [5] was “decrease in p‐CDK7 expression”.
`Cn1cc(-c2cc3ncnc(N)n3n2)c2cc(Br)ccc21` [Compound 1g, 7‐(5‐Bromo‐1‐methyl‐1H‐indol‐3‐yl)pyrazolo[1,5‐a][1,3,5]triazin‐4‐amine] was tested, and the “Bax/Bcl‐2 ratio SUIT 2.28” value ([1]; 1 × IC50, 24 h after treatment) was 1.21, the “Bax/Bcl‐2 ratio SUIT 2.28” value ([1]; 4 × IC50, 24 h after treatment) was 2.06 and the “Bax/Bcl‐2 ratio PATU‐T” value ([2]; 1 × IC50, 24 h after treatment) was 2.82. The “Bax/Bcl‐2 ratio PATU‐T” value ([2]; 4 × IC50, 24 h after treatment) was 3.74, the apoptotic index ([3]; PANC‐1, 24 h) was “did not show any significant increase in apoptotic index” and the apoptotic index ([3]; PANC‐1, 72 h) was “slight increase that was not statistically significant”. The apoptotic index ([4]; PDAC3, 24 h) was “significant increase in apoptotic index”, the apoptotic index ([4]; PDAC3, 72 h) was “continued to show a significant rise” and the “p‐CDK7 expression vs untreated” value [5] was “decrease in p‐CDK7 expression”.
